The values below come from US5364870A (priority 1993, dated 1994).

What all share (experiment): whole plant or invertebrate
Type in all cases: in vivo

Assay [1] relates to cucumber downy mildew (Pseudoperonospora cubensis). The conditions noted are these: 168 h, read-out: % Control CDM (percent disease control).
The test system of assay [2] is rice sheath blight (Pellicularia filamentosa f. sp. sasiki). Particulars: Oryza sativa, 120 h, read-out: % Control RSB (percent disease control).
For assay [3], the system named is wheat powdery mildew (Erysiphe graminis f. sp. tritici). Particulars: Blumeria graminis, read-out: % Control WPM (percent disease control).
The subject of assay [4] is rice blast (Piricularia oryzae). The conditions noted are these: Pyricularia oryzae, 192 h, read-out: % Control RB (percent disease control).
Assay [5] concerns wheat stem rust (Puccinia graminis f. sp. tritici Race 15B-2). Particulars: 336 h, read-out: % Control WSR (percent disease control).

Consider `CCCCC(C=NO)(Cn1cncn1)c1ccc(Cl)cc1` (stereo not shown) [Example 6, 2-(4-Chlorophenyl)-(E,Z)-1-hydroxyamino-2-[(1,2,4-triazol-1-yl)methyl]hexanal], for which the pest or weed control at 200 ppm in assay [1] is 0%; in assay [2] it was 0%; in assay [3] it was 100%; in assay [4], 0%; in assay [5], 100%.

Take `CCCCC(Cn1cncn1)(NC(C)=O)c1ccc(Cl)cc1` (stereo not shown) [Example 10, N-[2-(4-Chlorophenyl)-1-(1,2,4-triazol-1-yl)-2-hexyl]acetamide]: the pest or weed control at 200 ppm in assay [1] is 0%; in assay [2], 70%; in assay [3], 30%; in assay [4] it was 0%; in assay [5] it was 0%.

With `[C-]#[N+]C(CCCC)(Cn1cncn1)c1ccc(Cl)cc1` (stereo not shown) [Example 9, 2-(4-Chlorophenyl)-1-(1,2,4-triazol-1-yl)-2-hexylisocyanide], the pest or weed control at 200 ppm in assay [1] was found to be 0%; in assay [2], 0%; in assay [3], 100%; in assay [4], 80%; in assay [5], 90%.

For the compound `CCCCC(Cn1cncn1)(C(=O)N=[N+]=[N-])c1ccc(Cl)cc1` (stereo not shown) [Example 5, 2-(4-Chlorophenyl)-2-[(1,2,4-triazol-1-yl)methyl]hexanoylazide], the pest or weed control at 200 ppm in assay [1] worked out at 20%; in assay [2], 0%; in assay [3], 100%; in assay [5], 70%.

With `CCCCC(Cn1cncn1)(NC=O)c1ccc(Cl)cc1` (stereo not shown) [Example 8, N-[2-(4-Chlorophenyl)-1-(1,2,4-triazol-1-yl)-2-hexyl]formamide], the pest or weed control at 200 ppm came to 0% in assay [1], 100% in assay [3], 0% in assay [4] and 60% in assay [5].

As to `[C-]#[N+]CC(CCCC)(Cn1cncn1)c1ccc(Cl)cc1` (stereo not shown) [Example 2, 2-(4-Chlorophenyl)-2-[(1,2,4-triazol-1-yl)methyl]hexylisocyanide], the pest or weed control at 200 ppm in assay [1] came to 0%; in assay [2], 0%; in assay [3] it was 80%; in assay [4], 0%; in assay [5], 100%.

As to `CCCCC(C=O)(Cn1cncn1)c1ccc(Cl)cc1` (stereo not shown) [Example 3, 2-(4-Chlorophenyl)-2-[(1,2,4-triazol-1-yl)methyl]hexanal], the pest or weed control at 200 ppm in assay [1] is 0%; in assay [2], 50%; in assay [3] it was 100%; in assay [4], 70%; in assay [5] it was 100%.

`C=CC(CCCC)(Cn1cncn1)c1ccc(Cl)cc1` (stereo not shown) [Example 4, 3-(4-Chlorophenyl)-3-[(1,2,4-triazol-1-yl)methyl]-1-heptene]: the pest or weed control at 200 ppm in assay [1] is 80%; in assay [2], 60%; in assay [3], 100%; in assay [4], 80%; in assay [5], 100%.

On to `CCCCC(CNC=O)(Cn1cncn1)c1ccc(Cl)cc1` (stereo not shown) [Example 1, N-(2-(4-Chlorophenyl)-2-[(1,2,4-triazol-1-yl)methyl]hexyl)formamide], for which the pest or weed control at 200 ppm turned out to be 0% in assay [1]; 0% in assay [2]; 80% in assay [3]; 0% in assay [4]; 0% in assay [5].
